Experiment [1] concerns laminin-5, uPAR and CD44 transcripts in MCF-7 cells. Briefly: TaqMan real time PCR transcript analysis of EMT/CSC genes in MCF-IM model. In kind it is cell-based, human. The procedure: For most of the experiments, total RNA was extracted from 5×10^5 to 1×10^6 MCF-7 cells unless otherwise specified. Cells were first thawed in 1 mL of Trizol® Reagent (Invitrogen, Carlsbad, Calif.) for 5 minutes at room temperature to inactivate RNases, followed by trituration to dislodge the cell pellet. The dissociated cells suspended in Tizol (1 mL) were transferred into a 1.5 mL Eppendorf tube for 5 minutes for homogenization. RNA was then extracted by addition of 200 μL chloroform and mixing was done vigorously before centrifuging the samples at 8,000×g for 30 minutes at 4° C. The aqueous layer was then collected into a fresh 1.5 mL Eppendorf tube and an equal volume of isopropanolol was added to the aqueous layer and mixed gently. After 5 minutes at room temperature, samples were either snap frozen on dry ice and stored at −70° C. overnight or until the isolation procedure could be re-commenced. After thawing the samples quickly, the samples were again centrifuged at 8,000×g for 30 minutes at 4° C. to precipitate the RNA. To remove all traces of isopropanolol, next the RNA pellets were washed with 1 mL of ice cold 80% ethanol (Analytical UNIVAR, Seattle, Wash.) before centrifuging at 3,600×g for 10 minutes at 4° C. All ethanol then was removed and pellets were allowed to air dry for 5 minutes. RNA samples were then solubilized by re-suspending them in 50 μL of nuclease-free DEPC (Diethylpyrocarbonate treated) water (Ambion, VIC, Australia). Next, 2 μL of the sample was taken out to measure RNA quality and quantity on Nano-drop® Spectrophotometer ND 1000 (Nanodrop Technologies, Inc., Wilmington, Del., USA) using ND-1000 V3.30 software. All the RNA samples were found pure as they had A260/A280 ratio of 1.9-2.1 and this ratio provides an estimate of RNA purity with respect to contaminants such as proteins that absorb in the UV spectrum.
Superscript™® III kit (Invitrogen, Carlsbad, Calif.) was used for cDNA synthesis. Master mix-1 was prepared by adding 1 μL of 5 μM oligo (dT) and 1 μL of 100 mM dNTPs and mixed by flicking. Mastermix-2 was prepared by adding 2 μL of RT buffer, 2 μL of 3 mM mgCl2, 2 μL of DTT mix, 1 μL of RNAse out, 1 μL of superscript III and mixed by flicking. For 1 μg RNA, 2 μL of the master mix-1 was added to the samples, mixed and incubated at 65° C. for 5 minutes and then samples were placed on ice to stop the reaction. This step was followed by addition of 10 μL of the master mix-2 per sample and incubation of samples at 50° C. for 50 minutes. The reaction was then stopped by incubating samples at 85° C. for 5 minutes followed by placing the samples on the ice for 2 minutes. […] All the samples were either snap frozen on dry ice or used immediately for quantitative Real-Time PCR analysis. […]
Background: In qPCR the cycle at which signal appears reflects the starting amount.

Another experiment relates to MCF-7 cells. Briefly: EMT assay by phase contrast microscopy in MCF-IM model. It counts as cell-based, human. The conditions noted are these: MCF-IM model; for EMT (morphology): bisindolylmaleimide 1 μM, 1 hr pre-treatment before PMA for 60 hrs. The procedure: EMT assays were performed in 24-well plates (Costar, Corning Inc., Corning, N.Y., USA). For this assay, usually MCF-7 cells were seeded at 4×10^4/well/500 μL media one day before the experiment unless otherwise specified. Cells were stimulated with various EMT stimuli prepared in warm media the following day and monitored for EMT changes under the microscope specified below. The percentage of EMT was generally calculated based on phenotype counting 100 cells per field under the microscope. All the potential EMT stimuli used herein are described in Table 6 and they were prepared and stored as per supplier specification.
Phase contrast microscopy was utilized for EMT and wound healing assays under 10× or 20× magnification of Olympus Fluorescence 1X71 microscope. Images were captured and analyzed as described above except that wound healing assay pictures were also analyzed by Image J software (Free software in Public domain developed by NIH).
The adherent human mammary adenocarcinoma MCF-7 and MDA-MB-231 cells were cultured in low glucose DMEM (Gibco) and both supplemented with 10% FCS, 2 mM L-glutamine and 0.1% PSN antibiotics. […] For Bisindolylmaleimide-I (Calbiochem) or PKC-θ peptide inhibitor (Calbiochem) studies, cells were pre-treated with 1 μM or 30 μM of inhibitor respectively for 1 h prior to stimulation in MCF-7 cells. In case of MDA-MB-231, cells were treated with 4 μM or 30 μM Bisindolylmaleimide-I or PKC-θ peptide inhibitor respectively.
phase contrast microscopy was performed where cells were viewed at ×4 magnification (wound healing assay) or ×10 magnification (EMT) using an Olympus fluorescence IX71 microscope (Olympus) and images were captured using DPController software (2002 Olympus Optical Co. LTD) and analyzed using Photoshop CS3 (Adobe Systems Inc.). Scans were taken with a 10 μm scale bar.

In the case of `Cn1c2ccccc2c2c3c(c4c5ccccc5n(CCC#N)c4c21)CNC3=O` [Go6976], the “transcription of key inducible EMT/CSC genes (laminin-5, uPAR, CD44)” value in experiment [1] (Go6976 1 μM for 1 hour prior to PMA) is reported as “failed to inhibit transcription of key inducible EMT/CSC genes”. For the same compound, the “PMA-induced EMT-like morphological changes” value in the experiment on MCF-7 cells (pre-incubation with Go6976) is reported as “did not prevent PMA-induced EMT-like morphological changes or CSC formation”.
In the case of `CN(C)CCCn1cc(C2=C(c3c[nH]c4ccccc34)C(=O)NC2=O)c2ccccc21` [bisindolylmaleimide-I], the “transcription of key inducible EMT/CSC genes (laminin-5, uPAR, CD44)” value in experiment [1] (bisindolylmaleimide-I 100 nM for 1 hour prior to PMA) is “cannot inhibit transcription of key inducible EMT/CSC genes”; in experiment [1] (bisindolylmaleimide-I 1 μM for 1 hour prior to PMA), “inhibits transcription of key inducible EMT/CSC genes”; in experiment [1] (bisindolylmaleimide-I 1 μM for 1 hour prior to PMA, listed as Broad spectrum PKC pathway inhibitor), “inhibition of EMT and CSC formation”. Besides, the “EMT (morphology)” value in the experiment on MCF-7 cells is “inhibits EMT”; with MCF-7 cells (listed as Broad spectrum PKC pathway inhibitor), “inhibition of EMT and CSC formation”.

The values above are taken from patent US10485772B2, “Compositions for modulating cancer stem cells and uses therefor” (University of Canberra, priority 2014, dated 2019).
